In ChEMBL document CHEMBL3351519, “Synthetic studies on mitotic kinesin Eg5 inhibitors: synthesis and structure-activity relationships of novel 2,4,5-substituted-1,3,4-thiadiazoline derivatives” (Bioorg Med Chem Lett, 2014):

Tests used:
HCT-116 = assay: Induction of mitotic accumulation in human HCT116 cells Hoechst 33342 staining based by fluorescence microscopy; format: functional
[1] = Growth inhibition of human HCT116 cells; format: functional; details: HCT-116
A2780 [2] = assay: Antitumor activity against human A2780 cells xenografted in SCID mouse assessed as tumor volume ratio at 100 mg/kg, po bid for 5 days relative to untreated control; format: functional
Mus musculus [3] = assay: Toxicity in human A2780 cells xenografted SCID mouse assessed as mortality at 100 mg/kg, po bid for 5 days; format: organism-based; parameters: dose 100 mg/kg, route oral; details: in vivo, 120 h
Mus musculus [4] = assay: Toxicity in human A2780 cells xenografted SCID mouse assessed as induction of body weight loss at 100 mg/kg, po bid for 5 days; format: organism-based; parameters: dose 100 mg/kg, route oral; details: in vivo, 120 h
[5] = target: T1, Kinesin-like protein KIF11 (Homo sapiens, UniProt P52732); assay: Inhibition of Eg5 (unknown origin)
T1 sequence (P52732 whole entry): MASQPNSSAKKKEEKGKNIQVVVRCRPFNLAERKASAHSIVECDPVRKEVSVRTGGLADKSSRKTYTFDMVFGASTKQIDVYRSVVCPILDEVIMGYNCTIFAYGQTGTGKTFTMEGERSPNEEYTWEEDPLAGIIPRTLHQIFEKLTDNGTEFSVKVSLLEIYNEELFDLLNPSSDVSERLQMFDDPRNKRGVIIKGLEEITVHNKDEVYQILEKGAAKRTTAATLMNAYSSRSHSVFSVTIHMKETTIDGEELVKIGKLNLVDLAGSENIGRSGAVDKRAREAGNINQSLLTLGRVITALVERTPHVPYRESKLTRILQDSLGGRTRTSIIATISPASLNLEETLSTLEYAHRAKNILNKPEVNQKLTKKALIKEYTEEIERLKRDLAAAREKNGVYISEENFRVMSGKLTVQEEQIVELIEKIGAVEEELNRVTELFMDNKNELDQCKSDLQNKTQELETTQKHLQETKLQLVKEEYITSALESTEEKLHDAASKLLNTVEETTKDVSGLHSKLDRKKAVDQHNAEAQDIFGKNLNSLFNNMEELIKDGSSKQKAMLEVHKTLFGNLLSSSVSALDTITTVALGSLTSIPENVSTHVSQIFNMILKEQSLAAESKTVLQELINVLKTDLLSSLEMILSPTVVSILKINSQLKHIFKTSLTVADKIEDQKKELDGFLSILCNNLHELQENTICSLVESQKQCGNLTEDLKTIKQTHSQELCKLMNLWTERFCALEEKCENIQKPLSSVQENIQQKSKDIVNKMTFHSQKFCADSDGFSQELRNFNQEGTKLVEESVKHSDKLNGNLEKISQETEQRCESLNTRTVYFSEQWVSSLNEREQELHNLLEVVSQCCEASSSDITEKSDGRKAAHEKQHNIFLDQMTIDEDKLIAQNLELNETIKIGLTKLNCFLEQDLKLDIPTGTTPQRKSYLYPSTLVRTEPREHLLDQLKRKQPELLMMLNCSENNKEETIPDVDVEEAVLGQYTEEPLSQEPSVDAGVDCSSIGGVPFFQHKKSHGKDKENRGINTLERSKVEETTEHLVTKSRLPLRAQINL

[6] = Intrinsic clearance in mouse liver microsomes; format: ADME; details: read-out: CLH (converted)
A2780 [7] = assay: Antitumor activity against human A2780 cells xenografted in SCID mouse assessed as tumor volume ratio at 0.625 mg/kg, po bid for 5 days relative to untreated control; format: functional
A2780 [8] = assay: Antitumor activity against human A2780 cells xenografted in SCID mouse assessed as tumor volume ratio at 5 mg/kg, po bid for 5 days relative to untreated control; format: functional
Mus musculus [9] = assay: Toxicity in human A2780 cells xenografted SCID mouse assessed as mortality at 0.625 mg/kg, po bid for 5 days; format: organism-based; parameters: dose 0.625 mg/kg, route oral; details: in vivo, 120 h
Mus musculus [10] = assay: Toxicity in human A2780 cells xenografted SCID mouse assessed as induction of body weight loss at 0.625 mg/kg, po bid for 5 days; format: organism-based; parameters: dose 0.625 mg/kg, route oral; details: in vivo, 120 h
Mus musculus [11] = assay: Toxicity in human A2780 cells xenografted SCID mouse assessed as mortality at 5 mg/kg, po bid for 5 days; format: organism-based; parameters: dose 5 mg/kg, route oral; details: in vivo, 120 h
Mus musculus [12] = assay: Toxicity in human A2780 cells xenografted SCID mouse assessed as induction of body weight loss at 5 mg/kg, po bid for 5 days; format: organism-based; parameters: dose 5 mg/kg, route oral; details: in vivo, 120 h
[13] = Oral absorption in mouse; format: ADME, organism-based; details: in vivo
A2780 [14] = assay: Antitumor activity against human A2780 cells xenografted in SCID mouse assessed as tumor volume ratio at 2.5 mg/kg, po bid for 5 days relative to untreated control; format: functional
A2780 [15] = assay: Antitumor activity against human A2780 cells xenografted in SCID mouse assessed as tumor volume ratio at 10 mg/kg, po bid for 5 days relative to untreated control; format: functional
Mus musculus [16] = assay: Toxicity in human A2780 cells xenografted SCID mouse assessed as mortality at 2.5 mg/kg, po bid for 5 days; format: organism-based; parameters: dose 2.5 mg/kg, route oral; details: in vivo, 120 h
Mus musculus [17] = assay: Toxicity in human A2780 cells xenografted SCID mouse assessed as induction of body weight loss at 2.5 mg/kg, po bid for 5 days; format: organism-based; parameters: dose 2.5 mg/kg, route oral; details: in vivo, 120 h
Mus musculus [18] = assay: Toxicity in human A2780 cells xenografted SCID mouse assessed as mortality at 10 mg/kg, po bid for 5 days; format: organism-based; parameters: dose 10 mg/kg, route oral; details: in vivo, 120 h
Mus musculus [19] = assay: Toxicity in human A2780 cells xenografted SCID mouse assessed as induction of body weight loss at 10 mg/kg, po bid for 5 days; format: organism-based; parameters: dose 10 mg/kg, route oral; details: in vivo, 120 h
[20] = Therapeutic index, ratio of MTD in human A2780 cells xenografted SCID mouse to ED50 for human A2780 cells xenografted in SCID mouse; format: cell-based; details: in vivo, read-out: TI
A2780 [21] = assay: Antitumor activity against human A2780 cells xenografted in SCID mouse assessed as reduction in tumor volume dosed orally twice daily for 5 days relative to untreated control; format: functional, organism-based

Row | Structure (SMILES) | MI20 (HCT-116) [nmol/L] | GI50 [1] [nM] | IC50 [5] [nM] | other results
1 | CC(=O)NC1=NN(C(C)=O)C(C)(c2ccccc2)S1 (stereo not given) | 1100 | 1000 |  | T/C (A2780 [2]): 0.18; Activity (Mus musculus [3]): Non-toxic; Activity (Mus musculus [4]): Non-toxic
2 | CC(=O)N1N=C(N)SC1(C)c1ccccc1 (stereo not given) | >10000 |  |  | 
3 | CC(C)(C)C(=O)NC1=NN(C(=O)C(C)(C)C)C(CC#N)(c2ccccc2)S1 (stereo not given) | >10000 |  |  | 
4 | CC(C)(C)C(=O)NC1=NN(C(=O)C(C)(C)C)C(CS(C)(=O)=O)(c2ccccc2)S1 (stereo not given) | >10000 |  |  | 
5 | COCC1(c2ccccc2)SC(NC(=O)C(C)(C)C)=NN1C(=O)C(C)(C)C (stereo not given) | 430 | 560 |  | 
6 | CC(=O)NCC1(c2ccccc2)SC(NC(=O)C(C)(C)C)=NN1C(=O)C(C)(C)C (stereo not given) | 2200 |  |  | 
7 | CC(C)(C)C(=O)NC1=NN(C(=O)C(C)(C)C)C(CNS(C)(=O)=O)(c2ccccc2)S1 (stereo not given) | 16 | 17 | 44 | 
8 | CC(C)(C)C(=O)NC1=NN(C(=O)C(C)(C)C)C(CCNS(C)(=O)=O)(c2ccccc2)S1 (stereo not given) | 71 | 63 | 120 | CLint scaled [6]: 32.5 mL/min/kg
9 | CCC(=O)NC1=NN(C(=O)CC)C(C)(c2ccccc2)S1 (stereo not given) | 1700 |  |  | 
10 | CC(C)C(=O)NC1=NN(C(=O)C(C)C)C(C)(c2ccccc2)S1 (stereo not given) | 460 | 550 |  | 
11 | CC(C)CC(=O)NC1=NN(C(=O)CC(C)C)C(C)(c2ccccc2)S1 (stereo not given) | 170 | 190 | 520 | 
12 | CC1(c2ccccc2)SC(NC(=O)c2ccccc2)=NN1C(=O)c1ccccc1 (stereo not given) | >10000 |  |  | 
13 | CCC(=O)N1N=C(NC(=O)C(C)(C)C)SC1(CCNS(C)(=O)=O)c1ccccc1 (racemic) | 114 |  | 111 | CLint scaled [6]: 14.8 mL/min/kg
14 | CC(C)C(=O)N1N=C(NC(=O)C(C)(C)C)SC1(CCNS(C)(=O)=O)c1ccccc1 (racemic) | 114 |  | 110 | CLint scaled [6]: 14.8 mL/min/kg
15 | CC(C)C(=O)N1N=C(NC(=O)C(C)(C)C)SC1(CCNS(C)(=O)=O)c1ccccc1 (single isomer, unassigned; (+)) | >10000 |  |  | 
16 | CCC(=O)N1N=C(NC(=O)C(C)(C)C)SC1(CCNS(C)(=O)=O)c1ccccc1 (single isomer, unassigned; (-)) [listing 1 of 2 here] | 55 | 560 | 64 | T/C (A2780 [7]): 0.5; T/C (A2780 [8]): 0.08; Activity (Mus musculus [9]): Non-toxic; Activity (Mus musculus [10]): Non-toxic; Activity (Mus musculus [11]): Non-toxic; Activity (Mus musculus [12]): Non-toxic
17 | CC(C)C(=O)N1N=C(NC(=O)C(C)(C)C)SC1(CCNS(C)(=O)=O)c1ccccc1 (single isomer, unassigned; (-)) [listing 1 of 2 here] | 40 | 63 | 48 | Fa [13]: 62%; T/C (A2780 [14]): 0.5; T/C (A2780 [15]): 0.27; Activity (Mus musculus [16]): Non-toxic; Activity (Mus musculus [17]): Non-toxic; Activity (Mus musculus [18]): Non-toxic; Activity (Mus musculus [19]): Non-toxic; selectivity ratio [20]: 8
18 | CC(C)C(=O)N1N=C(NC(=O)C(C)(C)C)SC1(CCNS(C)(=O)=O)c1ccccc1 (single isomer, unassigned; (-)) [listing 2 of 2 here] |  |  |  | TGI (A2780 [21]): Dose-dependent effect
19 | CCC(=O)N1N=C(NC(=O)C(C)(C)C)SC1(CCNS(C)(=O)=O)c1ccccc1 (single isomer, unassigned; (-)) [listing 2 of 2 here] |  |  |  | TGI (A2780 [21]): Dose-dependent effect
20 | CCC(=O)N1N=C(NC(=O)C(C)(C)C)SC1(CCNS(C)(=O)=O)c1ccccc1 (stereo in doubt; (+)-12a) | >10000 |  |  | 
